# In patent US12716903B2, “Microfluidic chip-based, universal coagulation assay” (Perosphere Technologies Inc., priority 2014, dated 2026):
# Test system: blood
# Assay: Blood clotting time on microfluidic closed device chip, by IR light transmission and impedance
# Design: species or system patient
# Conditions: PER977 added to blood sample containing edoxaban, both at 300 ng/mL; IR and impedance curves; room temperature
# Experimental: For detection of clotting through measurement of impedances, a sample is loaded into the chip, the chip is inserted into its reader, and the pogo pins connecting to the internal impedance electrodes connected via Kelvin clip leads to a QuadTech 1920 LCR meter. The magnitude and the phase of the complex impedance of the blood sample were recorded at 15 second intervals. […] The peaks or plateaus indicated a measure for the clotting time.
# For optical clot detection, IR LED and photodiode are inserted into their reader parts as described above. A blood sample is pipetted into the chip and the chip placed into the reader. The sample is continuously illuminated with IR light at 1,300 nm. At time intervals of typically 100 ms, the voltage drop across a 1 MOhm resistor caused by the photocurrent of the photodiode was recorded. Voltages typically measured several volts. Clotting of the sample caused the transmitted light and the photocurrent to vary over time. Characteristic peaks of the transmitted light curve indicated a measure for the clotting time.
# Blood was harvested from a patient using commercially available lancing devices. 10 μL of blood were obtained and pipetted into an Eppendorf tube. […]
# Edoxaban is a commercially available anticoagulant. […] The chip was inserted into its reader, and both IR light and impedance measurements were immediately recorded at room temperature (approximately 27° C.). […]
structure (smiles),measurement,value
"N=C(N)NCCC[C@H](N)C(=O)NCCCN1CCN(CCCNC(=O)[C@@H](N)CCCNC(=N)N)CC1 [PER977, ciraparantag]",characteristic peak indicative of the sample clotting time,2 min
same,occurrence of a local minimum around 12 minutes,suppresses the occurrence of a local minimum
